Type in all cases: functional
The subject of assay [1] is Streptococcus pyogenes. Briefly: Antibacterial activity against erythromycin-resistant Streptococcus pyogenes R1 after 24 h by NCCLS broth microdilution method. Particulars: R1, 24 h. On the technique in general: Broth dilution looks for growth in wells or tubes with falling amounts of substance.
A further assay has as its system Bacillus subtilis. Briefly: Antibacterial activity against penicillin-susceptible Bacillus subtilis ATCC 9372 after 24 h by NCCLS broth microdilution method. Particulars: ATCC 9372, 24 h.
In another assay the test system is Escherichia coli. Briefly: Antibacterial activity against penicillin-susceptible Escherichia coli ATCC 25922 after 24 h by NCCLS broth microdilution method. Conditions: ATCC 25922, 24 h.
The subject of assay [2] is Streptococcus pneumoniae. Briefly: Antibacterial activity against erythromycin-resistant Streptococcus pneumoniae A22072 harboring mef gene after 24 h by NCCLS broth microdilution method. Conditions: A22072, 24 h.
Assay [3] relates to Streptococcus pyogenes. Briefly: Antibacterial activity against erythromycin-susceptible Streptococcus pyogenes after 24 h by NCCLS broth microdilution method.
The subject of assay [4] is Staphylococcus aureus. Briefly: Potency index, ratio of clarithromycin MIC to compound MIC against […] Staphylococcus aureus ATCC 29213.
For assay [5], the system named is Streptococcus pneumoniae. Briefly: Antibacterial activity against erythromycin-resistant Streptococcus pneumoniae B1 harboring erm gene after 24 h by NCCLS broth microdilution method. Conditions: B1, 24 h.
Assay [6] has as its system Staphylococcus aureus. Briefly: Antibacterial activity against […] Staphylococcus aureus ATCC 29213 after 24 h by NCCLS broth microdilution method. Particulars: ATCC 29213, 24 h.
For another assay, the system named is Pseudomonas aeruginosa. Briefly: Antibacterial activity against penicillin-susceptible Pseudomonas aeruginosa ATCC 27853 after 24 h by NCCLS broth microdilution method. Particulars: ATCC 27853, 24 h.
For assay [7], the system named is Staphylococcus aureus. Briefly: Antibacterial activity against erythromycin-susceptible Staphylococcus aureus ATCC 25923 after 24 h by NCCLS broth microdilution method. Particulars: ATCC 25923, 24 h.
Assay [8] concerns Streptococcus pneumoniae. Briefly: Antibacterial activity against erythromycin-resistant Streptococcus pneumoniae AB11 harboring harboring mef and erm gene after 24 h by NCCLS broth microdilution method. Conditions: AB11, 24 h.

≈ marks a conversion by molar mass, not a printed value.

Consider `CC[C@H]1OC(=O)[C@H](C)C(=O)[C@H](C)[C@@H](O[C@@H]2O[C@H](C)C[C@H](N(C)C)[C@H]2O)[C@](C)(OC)C[C@@H](C)C(=O)[C@H](C)[C@@H](OC(=O)NCCNC(=O)/C=C/c2ccco2)[C@]1(C)O`, for which the minimum inhibitory concentration (MIC) (as a rule, the lowest concentration found to suppress growth) in the assay on Streptococcus pyogenes [1] is more than 128 µg/mL; against Bacillus subtilis it was 8 µg/mL (≈ 10.1 µM); against Escherichia coli, 128 µg/mL (≈ 161 µM); in the assay with Streptococcus pneumoniae [2], 1 µg/mL (≈ 1.26 µM); with Streptococcus pyogenes [3], 4 µg/mL (≈ 5.04 µM); against Streptococcus pneumoniae [5] it was 128 µg/mL (≈ 161 µM). The MIC was found to be 16 µg/mL (≈ 20.2 µM) with Staphylococcus aureus [6], 128 µg/mL (≈ 161 µM) against Pseudomonas aeruginosa, 64 µg/mL (≈ 80.6 µM) against Staphylococcus aureus [7] and 128 µg/mL (≈ 161 µM) in the assay on Streptococcus pneumoniae [8]. In addition, the Ratio in the assay on Staphylococcus aureus [4] is reported as 4.

The values are drawn from ChEMBL document CHEMBL4052765, “Synthesis and antibacterial evaluation of novel 11-O-carbamoyl clarithromycin ketolides” (2017).
